These are literature values, as cited in US10794912B2 (priority 2017, dated 2020).

The conditions of this data set: in vivo.

As to `C[C@@H]1Cc2c(Cl)cc(C(=O)N[C@@H](Cc3ccccc3)C(=O)O)c(O)c2C(=O)O1` [ochratoxin A], the time to death is 5 to 6 days.
